Test results taken from ChEMBL document CHEMBL4371076 (J Med Chem, 2019).
One block for each molecule: values may come before it.

Legend:
[1] = molecular target: Sodium channel protein type 5 subunit alpha (Homo sapiens, UniProt Q14524); assay: Inhibition of human Nav1.5 expressed in HEK293 cells after 600 secs at -50 mV holding potential by ion works barracuda population patch clamp method; format: cell-based
[2] = molecular target: T1, Sodium channel protein type 9 subunit alpha (Homo sapiens, UniProt Q15858); assay: Inhibition of human Nav1.7 expressed in HEK293 cells after 600 secs at -60 mV holding potential by ion works barracuda population patch clamp method; format: cell-based
T1 sequence (Q15858 whole entry): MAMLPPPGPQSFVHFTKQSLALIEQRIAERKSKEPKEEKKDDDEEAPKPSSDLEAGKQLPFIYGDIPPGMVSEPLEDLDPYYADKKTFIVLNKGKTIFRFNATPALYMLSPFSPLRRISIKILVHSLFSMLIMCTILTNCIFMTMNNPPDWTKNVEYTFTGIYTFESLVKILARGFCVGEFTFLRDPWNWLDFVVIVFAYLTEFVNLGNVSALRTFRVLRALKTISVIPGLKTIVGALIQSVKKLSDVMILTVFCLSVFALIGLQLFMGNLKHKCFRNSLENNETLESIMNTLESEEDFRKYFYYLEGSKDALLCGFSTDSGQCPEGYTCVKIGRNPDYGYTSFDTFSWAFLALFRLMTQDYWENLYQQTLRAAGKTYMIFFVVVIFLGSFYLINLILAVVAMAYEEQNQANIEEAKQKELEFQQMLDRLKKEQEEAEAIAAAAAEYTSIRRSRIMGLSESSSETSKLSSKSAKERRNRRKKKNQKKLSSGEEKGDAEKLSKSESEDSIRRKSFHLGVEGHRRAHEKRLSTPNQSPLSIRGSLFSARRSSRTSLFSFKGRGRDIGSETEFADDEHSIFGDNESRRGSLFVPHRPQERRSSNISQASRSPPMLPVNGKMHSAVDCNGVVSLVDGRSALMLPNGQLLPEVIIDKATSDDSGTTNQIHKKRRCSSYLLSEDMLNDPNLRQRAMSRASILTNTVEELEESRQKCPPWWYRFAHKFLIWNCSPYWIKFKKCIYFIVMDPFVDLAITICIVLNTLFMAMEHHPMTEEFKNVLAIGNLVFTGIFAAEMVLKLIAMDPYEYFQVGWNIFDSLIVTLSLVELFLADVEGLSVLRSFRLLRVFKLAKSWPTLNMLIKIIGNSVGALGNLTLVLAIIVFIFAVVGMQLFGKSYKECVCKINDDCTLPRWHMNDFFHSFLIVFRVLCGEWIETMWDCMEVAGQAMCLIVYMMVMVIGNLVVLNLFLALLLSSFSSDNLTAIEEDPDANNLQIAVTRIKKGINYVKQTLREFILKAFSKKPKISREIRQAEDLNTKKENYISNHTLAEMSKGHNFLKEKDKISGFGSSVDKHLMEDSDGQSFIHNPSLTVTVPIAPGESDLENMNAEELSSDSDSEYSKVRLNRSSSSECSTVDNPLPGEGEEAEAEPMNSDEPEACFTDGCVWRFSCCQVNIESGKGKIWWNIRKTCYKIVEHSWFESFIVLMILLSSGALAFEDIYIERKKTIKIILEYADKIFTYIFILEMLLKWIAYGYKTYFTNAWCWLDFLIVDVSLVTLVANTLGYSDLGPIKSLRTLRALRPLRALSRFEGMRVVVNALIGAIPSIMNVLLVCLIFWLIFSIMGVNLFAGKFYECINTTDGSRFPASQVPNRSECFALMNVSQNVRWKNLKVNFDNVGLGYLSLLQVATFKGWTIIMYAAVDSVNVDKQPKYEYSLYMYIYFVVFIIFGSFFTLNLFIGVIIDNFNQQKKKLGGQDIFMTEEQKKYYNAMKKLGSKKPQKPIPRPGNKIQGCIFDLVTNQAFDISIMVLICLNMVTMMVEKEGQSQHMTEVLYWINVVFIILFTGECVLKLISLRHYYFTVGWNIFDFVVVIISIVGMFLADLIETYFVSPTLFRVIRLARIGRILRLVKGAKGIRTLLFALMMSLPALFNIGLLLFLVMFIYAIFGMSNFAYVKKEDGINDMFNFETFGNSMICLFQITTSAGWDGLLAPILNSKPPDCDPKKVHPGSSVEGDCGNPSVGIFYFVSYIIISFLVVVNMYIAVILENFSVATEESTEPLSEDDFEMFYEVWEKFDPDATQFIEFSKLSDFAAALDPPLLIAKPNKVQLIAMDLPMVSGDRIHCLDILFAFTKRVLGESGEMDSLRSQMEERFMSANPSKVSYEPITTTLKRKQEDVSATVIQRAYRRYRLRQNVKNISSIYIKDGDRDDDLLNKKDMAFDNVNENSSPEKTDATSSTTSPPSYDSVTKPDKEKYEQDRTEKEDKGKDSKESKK

Cytochrome P450 2B6 [3] = molecular target: T2, Cytochrome P450 2B6 (Homo sapiens, UniProt P20813); assay: Inhibition of CYP2B6 in human liver microsomes; format: ADME; details: human, microsomes
T2 sequence (P20813 whole entry): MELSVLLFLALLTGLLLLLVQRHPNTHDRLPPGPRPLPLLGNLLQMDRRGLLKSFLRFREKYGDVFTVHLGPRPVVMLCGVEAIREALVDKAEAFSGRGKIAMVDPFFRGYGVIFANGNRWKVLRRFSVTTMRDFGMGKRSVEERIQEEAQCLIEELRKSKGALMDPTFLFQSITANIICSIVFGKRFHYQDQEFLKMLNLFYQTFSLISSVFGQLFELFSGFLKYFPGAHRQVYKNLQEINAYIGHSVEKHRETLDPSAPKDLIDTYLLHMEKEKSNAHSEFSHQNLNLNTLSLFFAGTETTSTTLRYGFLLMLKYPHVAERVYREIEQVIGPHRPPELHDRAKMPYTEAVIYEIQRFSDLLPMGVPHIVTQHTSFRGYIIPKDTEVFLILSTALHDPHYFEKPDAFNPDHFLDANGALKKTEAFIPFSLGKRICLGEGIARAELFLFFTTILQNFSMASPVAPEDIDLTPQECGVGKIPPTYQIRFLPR

Cytochrome P450 2C9 [4] = molecular target: T3, Cytochrome P450 2C9 (Homo sapiens, UniProt P11712); assay: Time-dependant inhibition of CYP2C9 in human liver microsomes; format: ADME
[5] = Efflux ratio of permeability in human Caco2 cells; format: ADME, cell-based; details: Caco-2
[6] = Metabolic stability in human liver microsomes assessed as parent compound remaining at 0.5 uM after 10 mins; format: ADME, Microsome; details: read-out: Stability
Cytochrome P450 2C19 [7] = molecular target: T4, Cytochrome P450 2C19 (Homo sapiens, UniProt P33261); assay: Inhibition of CYP2C19 in human liver microsomes; format: ADME; details: human, microsomes
T4 sequence (P33261 whole entry): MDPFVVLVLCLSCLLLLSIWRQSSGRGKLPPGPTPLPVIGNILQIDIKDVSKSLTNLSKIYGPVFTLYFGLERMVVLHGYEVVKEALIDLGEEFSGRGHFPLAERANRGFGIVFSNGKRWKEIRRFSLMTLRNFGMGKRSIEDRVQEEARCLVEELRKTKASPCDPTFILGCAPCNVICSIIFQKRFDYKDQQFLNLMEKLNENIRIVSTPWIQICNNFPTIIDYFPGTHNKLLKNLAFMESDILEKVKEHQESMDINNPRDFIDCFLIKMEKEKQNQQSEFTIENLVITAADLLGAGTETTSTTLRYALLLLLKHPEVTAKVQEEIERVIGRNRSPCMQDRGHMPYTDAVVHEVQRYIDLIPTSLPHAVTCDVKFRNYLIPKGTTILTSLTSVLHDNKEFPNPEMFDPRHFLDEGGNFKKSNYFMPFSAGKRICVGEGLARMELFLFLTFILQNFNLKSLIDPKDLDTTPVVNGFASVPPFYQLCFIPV

[8] = molecular target: T1, Sodium channel protein type 9 subunit alpha; assay: Inhibition of recombinant human Nav1.7 expressed in HEK293 cells at -70 mV holding potential by patch clamp electrophysiology method; format: cell-based
[9] = Metabolic stability in mouse liver microsomes assessed as parent compound remaining at 0.5 uM after 10 mins; format: ADME, Microsome; details: read-out: Stability
Cytochrome P450 3A4 [10] = molecular target: T5, Cytochrome P450 3A4 (Homo sapiens, UniProt P08684); assay: Inhibition of CYP3A4 in human liver microsomes; format: ADME; details: human, microsomes
T5 sequence (P08684 whole entry): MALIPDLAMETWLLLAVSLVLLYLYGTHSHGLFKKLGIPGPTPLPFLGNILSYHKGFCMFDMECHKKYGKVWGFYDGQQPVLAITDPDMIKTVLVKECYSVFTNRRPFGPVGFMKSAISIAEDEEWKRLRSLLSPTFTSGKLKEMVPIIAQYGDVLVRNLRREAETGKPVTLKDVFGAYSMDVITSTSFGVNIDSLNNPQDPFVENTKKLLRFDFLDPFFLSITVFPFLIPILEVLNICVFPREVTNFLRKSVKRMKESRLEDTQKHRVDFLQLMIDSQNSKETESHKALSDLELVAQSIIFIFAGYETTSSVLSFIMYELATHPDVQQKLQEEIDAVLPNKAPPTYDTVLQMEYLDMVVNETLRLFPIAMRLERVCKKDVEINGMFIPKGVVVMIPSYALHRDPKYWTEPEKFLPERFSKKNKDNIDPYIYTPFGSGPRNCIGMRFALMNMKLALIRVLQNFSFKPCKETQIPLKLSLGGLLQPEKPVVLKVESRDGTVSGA

Cytochrome P450 2C8 [11] = molecular target: T6, Cytochrome P450 2C8 (Homo sapiens, UniProt P10632); assay: Time-dependant inhibition of CYP2C8 in human liver microsomes; format: ADME
T6 sequence (P10632 whole entry): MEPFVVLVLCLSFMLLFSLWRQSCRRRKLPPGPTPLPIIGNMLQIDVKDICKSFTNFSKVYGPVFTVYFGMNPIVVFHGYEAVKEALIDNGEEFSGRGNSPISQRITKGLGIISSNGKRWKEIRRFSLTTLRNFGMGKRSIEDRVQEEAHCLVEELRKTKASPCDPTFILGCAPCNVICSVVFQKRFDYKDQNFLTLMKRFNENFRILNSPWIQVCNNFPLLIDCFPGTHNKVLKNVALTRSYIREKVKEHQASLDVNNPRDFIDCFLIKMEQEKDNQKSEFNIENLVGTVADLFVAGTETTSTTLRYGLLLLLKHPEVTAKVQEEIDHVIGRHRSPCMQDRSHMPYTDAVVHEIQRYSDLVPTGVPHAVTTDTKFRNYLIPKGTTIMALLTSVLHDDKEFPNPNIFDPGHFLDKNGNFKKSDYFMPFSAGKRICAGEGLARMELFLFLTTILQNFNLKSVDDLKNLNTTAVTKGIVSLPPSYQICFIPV

Cytochrome P450 2D6 [12] = molecular target: T7, Cytochrome P450 2D6 (Homo sapiens, UniProt P10635); assay: Inhibition of CYP2D6 in human liver microsomes; format: ADME; details: human, microsomes
[13] = Fraction unbound in human plasma; format: ADME, cell-free
[14] = Permeability from apical to basolateral side in human Caco2 cells; format: ADME, cell-based; details: Caco-2, read-out: permeability
Cytochrome P450 2B6 [15] = molecular target: T2, Cytochrome P450 2B6; assay: Time-dependant inhibition of CYP2B6 in human liver microsomes; format: ADME
Cytochrome P450 2C9 [16] = molecular target: T3, Cytochrome P450 2C9; assay: Inhibition of CYP2C9 in human liver microsomes; format: ADME; details: human, microsomes
Cytochrome P450 2C8 [17] = molecular target: T6, Cytochrome P450 2C8; assay: Inhibition of CYP2C8 in human liver microsomes; format: ADME; details: human, microsomes
[18] = Permeability from basolateral to apical side in human Caco2 cells; format: ADME, cell-based; details: Caco-2, read-out: permeability
[19] = Fraction unbound in mouse plasma; format: ADME, cell-free
[20] = Metabolic stability in rat liver microsomes assessed as parent compound remaining at 0.5 uM after 10 mins; format: ADME, Microsome; details: read-out: Stability
Cytochrome P450 2D6 [21] = molecular target: T7, Cytochrome P450 2D6; assay: Time-dependant inhibition of CYP2D6 in human liver microsomes; format: ADME
Cytochrome P450 3A4 [22] = molecular target: T5, Cytochrome P450 3A4; assay: Time-dependant inhibition of CYP3A4 in human liver microsomes; format: ADME
Cytochrome P450 2C19 [23] = molecular target: T4, Cytochrome P450 2C19; assay: Time-dependant inhibition of CYP2C19 in human liver microsomes; format: ADME

Sequence of Sodium channel protein type 5 subunit alpha (Q14524 whole entry): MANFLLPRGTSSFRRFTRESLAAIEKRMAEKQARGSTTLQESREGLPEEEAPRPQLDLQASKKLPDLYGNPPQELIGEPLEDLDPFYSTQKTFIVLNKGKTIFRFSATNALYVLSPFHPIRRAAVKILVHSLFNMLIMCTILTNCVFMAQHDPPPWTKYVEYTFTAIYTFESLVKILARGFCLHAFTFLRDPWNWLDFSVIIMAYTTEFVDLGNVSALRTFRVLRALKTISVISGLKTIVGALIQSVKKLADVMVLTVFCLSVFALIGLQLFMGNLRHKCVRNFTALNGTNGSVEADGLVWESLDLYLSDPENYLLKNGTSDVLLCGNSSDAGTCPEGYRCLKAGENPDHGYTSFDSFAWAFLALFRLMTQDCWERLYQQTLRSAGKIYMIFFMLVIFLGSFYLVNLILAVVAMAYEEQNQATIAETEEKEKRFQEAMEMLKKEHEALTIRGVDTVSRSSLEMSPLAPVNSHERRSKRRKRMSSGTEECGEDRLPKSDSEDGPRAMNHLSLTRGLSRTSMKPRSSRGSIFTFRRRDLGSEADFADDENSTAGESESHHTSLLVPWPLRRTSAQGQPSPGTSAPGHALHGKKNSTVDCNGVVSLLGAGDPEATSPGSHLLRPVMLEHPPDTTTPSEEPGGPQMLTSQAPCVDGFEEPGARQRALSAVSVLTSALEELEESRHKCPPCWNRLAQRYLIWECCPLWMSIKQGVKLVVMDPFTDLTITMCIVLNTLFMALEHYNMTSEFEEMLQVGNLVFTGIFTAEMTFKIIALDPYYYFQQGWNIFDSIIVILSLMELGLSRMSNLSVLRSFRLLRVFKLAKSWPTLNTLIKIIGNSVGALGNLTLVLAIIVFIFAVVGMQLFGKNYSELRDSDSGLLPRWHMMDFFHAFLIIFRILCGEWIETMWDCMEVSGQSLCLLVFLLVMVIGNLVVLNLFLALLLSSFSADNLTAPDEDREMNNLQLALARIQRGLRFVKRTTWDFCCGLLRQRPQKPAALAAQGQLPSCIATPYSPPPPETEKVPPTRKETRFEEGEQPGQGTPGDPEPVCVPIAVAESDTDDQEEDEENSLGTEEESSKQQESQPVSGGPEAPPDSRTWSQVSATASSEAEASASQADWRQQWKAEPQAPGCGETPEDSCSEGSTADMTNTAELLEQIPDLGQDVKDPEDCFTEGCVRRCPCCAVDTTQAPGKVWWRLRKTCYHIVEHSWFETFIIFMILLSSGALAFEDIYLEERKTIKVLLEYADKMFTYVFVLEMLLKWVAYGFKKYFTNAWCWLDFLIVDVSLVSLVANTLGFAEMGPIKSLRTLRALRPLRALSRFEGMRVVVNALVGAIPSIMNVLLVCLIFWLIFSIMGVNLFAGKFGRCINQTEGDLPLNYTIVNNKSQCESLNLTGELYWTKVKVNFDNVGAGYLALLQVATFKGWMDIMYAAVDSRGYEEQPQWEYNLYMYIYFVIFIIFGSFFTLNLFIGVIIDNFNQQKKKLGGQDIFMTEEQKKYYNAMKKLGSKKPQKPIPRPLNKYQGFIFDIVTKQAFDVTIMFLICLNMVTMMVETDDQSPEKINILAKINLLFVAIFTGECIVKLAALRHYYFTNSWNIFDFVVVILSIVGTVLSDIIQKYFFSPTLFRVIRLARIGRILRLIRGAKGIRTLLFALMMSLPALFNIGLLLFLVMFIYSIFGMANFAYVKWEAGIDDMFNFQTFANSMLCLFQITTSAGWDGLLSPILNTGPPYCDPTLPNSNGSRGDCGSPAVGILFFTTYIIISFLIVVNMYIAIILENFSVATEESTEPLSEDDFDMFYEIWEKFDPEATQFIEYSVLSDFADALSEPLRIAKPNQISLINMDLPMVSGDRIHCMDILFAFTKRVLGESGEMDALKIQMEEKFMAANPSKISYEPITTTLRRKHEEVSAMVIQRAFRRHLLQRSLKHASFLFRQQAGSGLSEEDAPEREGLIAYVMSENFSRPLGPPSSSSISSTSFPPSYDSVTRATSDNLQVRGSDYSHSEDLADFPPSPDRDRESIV

SMILES: CC(C)COc1ncc(-c2cn(C(C)C)c3cc(C(=O)NS(C)(=O)=O)ccc23)cc1Cl
IC50 [1]: 1700 nM

SMILES: Cn1cc(-c2ccc(C(F)(F)F)cc2)c2cnc(C(=O)NS(C)(=O)=O)cc21
IC50 [2]: > 30000 nM

IC50 [2]: 642 nM
SMILES: Cn1cc(-c2ccc(C(F)(F)F)cc2)c2ccc(C(=O)NS(=O)(=O)C3CC3)nc21

SMILES: Cn1nc(-c2ccc(C(F)(F)F)cc2)c2ccc(C(=O)NS(C)(=O)=O)cc21
IC50 [2]: 194 nM | IC50 [1]: > 30000 nM

SMILES: CC(C)Cc1ccc(-c2cn(C)c3cc(C(=O)NS(C)(=O)=O)ccc23)cc1
inhibition (INH) (Cytochrome P450 2B6 [3]): Not Active | TDI (Cytochrome P450 2C9 [4]): Not Active | efflux ratio [5]: > 6.2 | remaining at 10 min, 0.5 µM [6]: 100% | inhibition (INH) (Cytochrome P450 2C19 [7]): Not Active | IC50 [1]: > 30000 nM | IC50 [8]: 23 nM | remaining at 10 min, 0.5 µM [9]: 100% | inhibition (INH) (Cytochrome P450 3A4 [10]): Not Active | TDI (Cytochrome P450 2C8 [11]): Not Active | inhibition (INH) (Cytochrome P450 2D6 [12]): Not Active | fraction unbound [13]: 0.001 | Papp A→B [14]: < 1.5 ×10⁻⁶ cm/s | TDI (Cytochrome P450 2B6 [15]): Not Active | inhibition (INH) (Cytochrome P450 2C9 [16]): Not Active | inhibition (INH) (Cytochrome P450 2C8 [17]): Not Active | Papp B→A [18]: 7.8 ×10⁻⁶ cm/s | fraction unbound [19]: 0.003 | remaining at 10 min, 0.5 µM [20]: 94% | TDI (Cytochrome P450 2D6 [21]): Not Active | TDI (Cytochrome P450 3A4 [22]): Not Active | TDI (Cytochrome P450 2C19 [23]): Not Active

SMILES: Cn1cc(-c2cccc(F)c2F)c2ccc(C(=O)NS(C)(=O)=O)cc21
IC50 [1]: > 30000 nM

SMILES: Cn1cc(-c2cnc(OCC(F)F)c(Cl)c2)c2ccc(C(=O)NS(C)(=O)=O)cc21
IC50 [2]: 850 nM | IC50 [1]: > 30000 nM

SMILES: Cn1cc(-c2ccc(C(F)F)cc2)c2ccc(C(=O)NS(C)(=O)=O)cc21
IC50 [1]: > 30000 nM

SMILES: Cn1cc(-c2cnc(OCC(C)(C)O)c(Cl)c2)c2ccc(C(=O)NS(C)(=O)=O)cc21
IC50 [2]: > 30000 nM | IC50 [1]: > 30000 nM

SMILES: CC(C)COc1ccc(-c2nn(C)c3cc(C(=O)NS(C)(=O)=O)ccc23)cn1
IC50 [2]: 314 nM | IC50 [1]: > 30000 nM

IC50 [2]: 3020 nM
SMILES: Cn1cc(-c2ccc(C(F)(F)F)cc2)c2ccc(C(=O)NS(C)(=O)=O)nc21

IC50 [2]: 2000 nM
SMILES: CC(C)COc1ncc(-c2cn(C)c3cc(C(=O)NS(=O)(=O)C4CC4)cnc23)cc1Cl

IC50 [2]: 530 nM
SMILES: CC(C)COc1ccc(-c2cn(C)c3cc(C(=O)NS(C)(=O)=O)ccc23)cc1
IC50 [1]: 18000 nM

SMILES: Cn1nc(-c2ccc(C(F)(F)F)cc2)c2cc(F)c(C(=O)NS(C)(=O)=O)cc21
IC50 [2]: 52 nM | IC50 [1]: > 30000 nM

IC50 [2]: 104 nM
SMILES: CC(C)COc1ncc(-c2nn(C)c3cc(C(=O)NS(=O)(=O)C4CC4)ccc23)cc1Cl
IC50 [1]: 5900 nM

IC50 [2]: 7820 nM
SMILES: CC(C)COc1ncc(-c2cn(C)c3cc(C(=O)NS(C)(=O)=O)cnc23)cc1Cl

SMILES: Cn1cc(-c2ccc(C(F)(F)F)cc2)c2ccc(C(=O)NS(=O)(=O)c3ccc(F)c(F)c3)cc21
IC50 [2]: > 3000 nM

IC50 [2]: 70 nM
SMILES: CC(C)COc1ncc(-c2cn(C)c3cc(C(=O)NS(C)(=O)=O)ccc23)cc1C#N
IC50 [1]: 21000 nM

IC50 [2]: 63 nM
SMILES: Cn1cc(-c2cnc(OCC(F)(F)F)c(Cl)c2)c2ccc(C(=O)NS(C)(=O)=O)cc21
IC50 [1]: 12000 nM

IC50 [2]: 123 nM
SMILES: Cn1cc(-c2cnc(OCC3CC3)c(Cl)c2)c2ccc(C(=O)NS(C)(=O)=O)cc21
